Measurements published in patent publication US9757375B2, “Compounds that inhibit human DNA ligases and methods of treating cancer” (University of Maryland, Baltimore, priority 2007, dated 2017).
Read-outs that look alike come from different tables or passages of the source. Marks after values point to notes of the source that are not given here.

Assays:
[1] = target: T1, hLigI (Homo sapiens, UniProt P18858); test: High-throughput fluorescence-based DNA joining (ligation) assay; assay type: biochemical; settings: read-out: % of inhibition @ 100 μM (Helen's data) hLigI
T1 construct: made in house
T1 sequence (P18858 whole entry): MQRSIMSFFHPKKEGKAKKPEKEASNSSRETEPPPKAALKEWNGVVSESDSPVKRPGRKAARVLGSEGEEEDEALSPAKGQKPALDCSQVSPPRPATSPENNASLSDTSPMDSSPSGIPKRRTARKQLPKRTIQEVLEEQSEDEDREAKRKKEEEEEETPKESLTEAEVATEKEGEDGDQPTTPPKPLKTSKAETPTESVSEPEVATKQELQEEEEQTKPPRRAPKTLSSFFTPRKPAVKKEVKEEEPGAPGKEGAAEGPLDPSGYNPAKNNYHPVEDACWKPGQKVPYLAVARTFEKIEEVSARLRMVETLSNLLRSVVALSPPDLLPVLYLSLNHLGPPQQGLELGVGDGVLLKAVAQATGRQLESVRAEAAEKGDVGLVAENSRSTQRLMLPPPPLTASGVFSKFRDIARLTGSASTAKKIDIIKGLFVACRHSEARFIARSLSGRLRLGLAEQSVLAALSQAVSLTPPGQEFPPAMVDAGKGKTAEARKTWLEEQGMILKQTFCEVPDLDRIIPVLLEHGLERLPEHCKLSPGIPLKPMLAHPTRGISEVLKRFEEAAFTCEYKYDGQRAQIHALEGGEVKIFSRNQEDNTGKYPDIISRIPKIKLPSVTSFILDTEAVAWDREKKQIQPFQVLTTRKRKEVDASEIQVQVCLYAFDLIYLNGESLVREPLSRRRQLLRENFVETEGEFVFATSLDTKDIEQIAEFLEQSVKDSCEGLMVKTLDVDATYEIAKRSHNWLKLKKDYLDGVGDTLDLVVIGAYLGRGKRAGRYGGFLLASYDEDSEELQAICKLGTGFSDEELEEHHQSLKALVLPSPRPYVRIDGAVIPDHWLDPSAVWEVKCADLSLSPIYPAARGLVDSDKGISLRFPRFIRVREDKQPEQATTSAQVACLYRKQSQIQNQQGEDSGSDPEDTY
Experimental: Candidate ligase inhibitors identified by CADD were assayed for their ability to inhibit hLigI and T4 DNA ligase using a high-throughput, fluorescence energy transfer-based DNA joining assay (22). Duplicate reactions (30 μL) containing 10 pmol of nicked DNA substrate and either 0.25 pmol of hLigI or 10 units of T4 DNA ligase were incubated in the presence or absence of 100 μmol/L of the putative inhibitor. DNA binding by the candidate DNA ligase inhibitors was measured by displacement of ethidium bromide from DNA as previously described (30).
(§1) The method for screening compounds comprises testing the compound for the ability to inhibit human DNA ligases I, III and IV with a high throughput fluorescence-based ligation assay. In this assay, phosphodiester bond formation covalently links together two oligonucleotides, one of which is a fluorescent donor AF488 that is 11 nucleotides from the 3′ terminus and the other contains a fluorescence acceptor and quencher, BHQ1 that is 15 nucleotides from the 5′ terminus. When these oligonucleotides are present in separate duplexes and in the same nicked or intact duplex, there is no significant quenching of fluorescence because the donor and acceptor are too far apart. As single-strands neither the AF488 oligonucleotide nor the BHQ1 oligonucleotides have significant secondary structure. However, when these oligonucleotides are ligated together, the resultant single strand forms a stable hairpin structure, in which the AF488 and BHQ1 groups are very close together, resulting in efficient intra-molecular quenching of fluorescence. Thus, in the DNA joining assay, the DNA substrate is denatured after incubation with the DNA ligase and then renatured in the presence of a 20-fold excess of an oligonucleotide that is identical to the ligated strand containing the fluorescent door and acceptor except that it lacks these modifications. Using this assay, DNA joining, which results in reduced fluorescence at 518 nm, can be measured rapidly, quantitatively and with high-throughput using a fluorescence plate reader.
(§2) Applicants developed a novel high throughput fluorescence-based ligation assay by modifying the sequence of the oligos to optimize hairpin formation by the single strand ligated product of the high throughput fluorescence-based ligation assay of Chen et al (22). […] Compound stock solutions, which were 10 mM in 0.5% DMSO, were diluted in 0.5% DMSO. Human DNA ligases I and III were assayed with a nicked DNA substrate whereas as the substrate for human DNA ligase IV was two oligonucleotide duplexes with short complementary single strand ends.

[2] = target: T2, human DNA ligase III (Homo sapiens, UniProt P49916); test: as above; assay type: biochemical; settings: read-out: % of inhibition @ 100 μM (Helen's data) hLigIII
T2 sequence (P49916 1-862 isoform P49916-4): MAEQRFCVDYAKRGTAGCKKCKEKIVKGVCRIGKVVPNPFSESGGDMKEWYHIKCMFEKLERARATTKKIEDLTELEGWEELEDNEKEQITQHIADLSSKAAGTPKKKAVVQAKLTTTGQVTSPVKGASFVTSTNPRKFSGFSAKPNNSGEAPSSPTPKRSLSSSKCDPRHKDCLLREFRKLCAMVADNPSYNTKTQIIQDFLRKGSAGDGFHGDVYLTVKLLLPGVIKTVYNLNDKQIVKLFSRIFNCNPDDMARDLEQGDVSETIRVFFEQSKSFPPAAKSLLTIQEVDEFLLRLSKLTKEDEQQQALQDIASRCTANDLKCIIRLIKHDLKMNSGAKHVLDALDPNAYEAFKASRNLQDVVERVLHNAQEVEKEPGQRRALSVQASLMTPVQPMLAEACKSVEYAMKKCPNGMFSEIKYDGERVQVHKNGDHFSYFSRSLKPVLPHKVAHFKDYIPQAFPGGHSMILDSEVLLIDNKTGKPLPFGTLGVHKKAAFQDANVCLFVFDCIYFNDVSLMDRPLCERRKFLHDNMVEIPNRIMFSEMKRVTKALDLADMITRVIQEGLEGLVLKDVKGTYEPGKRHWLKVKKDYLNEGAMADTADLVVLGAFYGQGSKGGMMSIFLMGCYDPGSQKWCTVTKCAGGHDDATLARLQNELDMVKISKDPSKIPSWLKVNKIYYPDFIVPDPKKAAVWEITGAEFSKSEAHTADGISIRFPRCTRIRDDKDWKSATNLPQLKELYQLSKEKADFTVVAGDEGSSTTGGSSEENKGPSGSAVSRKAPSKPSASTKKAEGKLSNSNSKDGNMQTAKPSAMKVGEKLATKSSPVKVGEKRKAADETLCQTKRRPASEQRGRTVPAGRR
Excerpt: as §1, §2

[3] = target: human DNA ligase IV (Homo sapiens, UniProt P49917); test: as above; assay type: biochemical; settings: read-out: % of inhibition @ 100 μM (Helen's data) hLigIV
human DNA ligase IV, sequence (P49917 whole entry): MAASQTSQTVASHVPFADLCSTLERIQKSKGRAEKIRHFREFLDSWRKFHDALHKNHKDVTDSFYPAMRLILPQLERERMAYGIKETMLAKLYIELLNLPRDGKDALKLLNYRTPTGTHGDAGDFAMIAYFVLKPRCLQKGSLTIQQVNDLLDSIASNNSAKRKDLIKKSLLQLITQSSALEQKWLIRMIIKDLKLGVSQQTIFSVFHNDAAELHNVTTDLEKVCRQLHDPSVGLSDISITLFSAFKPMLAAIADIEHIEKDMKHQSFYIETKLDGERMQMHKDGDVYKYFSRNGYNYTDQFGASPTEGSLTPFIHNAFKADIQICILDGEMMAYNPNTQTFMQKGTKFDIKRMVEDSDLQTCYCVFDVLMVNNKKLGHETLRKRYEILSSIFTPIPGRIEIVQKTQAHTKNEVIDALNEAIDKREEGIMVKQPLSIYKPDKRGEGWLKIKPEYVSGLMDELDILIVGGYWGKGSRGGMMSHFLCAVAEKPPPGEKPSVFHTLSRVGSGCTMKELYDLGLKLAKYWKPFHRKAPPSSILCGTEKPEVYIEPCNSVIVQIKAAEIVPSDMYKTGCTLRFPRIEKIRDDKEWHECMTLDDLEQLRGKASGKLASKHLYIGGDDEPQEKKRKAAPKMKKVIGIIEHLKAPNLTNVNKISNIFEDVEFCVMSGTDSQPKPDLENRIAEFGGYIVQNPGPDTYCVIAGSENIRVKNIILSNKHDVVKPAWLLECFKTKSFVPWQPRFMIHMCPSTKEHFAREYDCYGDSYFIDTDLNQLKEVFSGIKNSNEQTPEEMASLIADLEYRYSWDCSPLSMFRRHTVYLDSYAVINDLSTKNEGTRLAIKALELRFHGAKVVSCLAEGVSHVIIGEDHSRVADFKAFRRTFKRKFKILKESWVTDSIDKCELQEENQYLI
human DNA ligase IV, sequence (Q13426 whole entry partner): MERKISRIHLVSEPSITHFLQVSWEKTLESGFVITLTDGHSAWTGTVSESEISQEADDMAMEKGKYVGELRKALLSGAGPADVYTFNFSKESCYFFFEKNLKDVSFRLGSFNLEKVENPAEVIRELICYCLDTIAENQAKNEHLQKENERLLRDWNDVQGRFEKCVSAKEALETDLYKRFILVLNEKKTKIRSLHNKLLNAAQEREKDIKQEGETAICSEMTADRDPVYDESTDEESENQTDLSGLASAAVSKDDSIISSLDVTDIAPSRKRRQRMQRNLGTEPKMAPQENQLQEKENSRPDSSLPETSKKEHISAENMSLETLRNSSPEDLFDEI
Excerpt: as §1, §2

[4] = test system: HCT116 cells; test: Screen for potentiation of DNA damaging agents (MMS, camptothecin, cis-platinum, 3 aminobenzamide, ionizing radiation); assay type: cell-based, human; settings: 1 = no sensitization; for MMS: Ratios of IC50 HCT116: compound alone vs combination with MMS (100 μM)
Excerpt: The 192 human DNA ligase inhibitors were screened in parallel for effects on proliferation and the ability to potentiate the effects of several DNA damaging agents using two cell human lines, a colon cancer line HCT116 and a normal breast epithelial cell line MCF10A using a Biomek FX Laboratory Automation Workstation as described (23). The DNA damaging agents used, methyl methanesulfonate (MMS), camptothecin, cis-platinum, 3 aminobenzamide and ionizing radiation, are representatives of classes of agents used to treat cancer. Briefly, HCT116 and MCF10A cells were plated in 96 well plates such that the cultures were about 80% confluent after 5 days incubation. Compounds were added to the cultures at either 15 μM or 50 μM 1 day after plating. After incubation for 3 days, cell lysed in a solution containing 1.2% Igepal CA-630 and SYBR green that stains DNA (1:1000, Molecular Probes, Eugene, Oreg.). Subsequently, fluorescence was measured per well. The studies with DNA damaging agents were performed as follows. […] For ionizing radiation, cells were pre-incubated with the compounds at 50 μM for 1 hour prior to exposure to 2 gray of ionizing radiation. Cultures were incubated for 3 days and then treated as above.

[5] = test system: HCT116 cells; test: MTT cell growth assay; assay type: cell-based, human; settings: Homo sapiens, HCT-116
Experimental: (§3) The activity of hits from the initial screen was further validated using the MTT assay. Briefly, MCF10A and HCT116 cells were seeded in 96 well plates at 300 and 1200 cells per well, respectively, and allowed to adhere overnight. The following day, serial dilutions of compounds in media were added to the cells in a final volume 200 μl. After incubation for 5 days, MTT reagent (3-(4,5-dimthylthiazol-2-yl)-2,5-diphenyltatrazolium) was added and incubation was continued for 4 h. Formazan crystals generated by reduction of the MTT reagent in mitochondria were solubilized with isopropanol prior to the measurement of absorbance at 560 nm wavelength in a plate reader.
After incubation for 5 days, cell growth was measured by the MTT assay (16).

[6] = test system: MCF10A cells; test: MTT cell growth assay; assay type: cell-based, human; settings: Homo sapiens, MCF-10A; sections 'high concentrations (~50 μM)' and 'active in vitro that decreased cell growth'; same figures given in μM elsewhere in Table 6; read-out: IC50 MCF10A (head without unit)
Experimental: as §3
To extend the results of the […] cell culture screening assay, a subset of compounds were tested in larger cultures. Different concentrations of Compounds 67 and 151 were added to asynchronous subconfluent populations of HCT116 and MCF10A cells. Asynchronous subconfluent populations of HCT116 and MCF10A cells were pre-treated with different concentrations of compound 64 prior to the addition of 3 aminobenzamide (2 mM) MMS (100 μM) or cis-platinum (1 μM). After incubation for 5 days, cell growth was measured by the MTT assay (16).

[7] = test system: MCF10A cells; test: Screen for potentiation of DNA damaging agents (MMS, camptothecin, cis-platinum, 3 aminobenzamide, ionizing radiation); assay type: cell-based, human; settings: compound alone vs combination with 3-AB (2 mM); 1 = no sensitization
Excerpt: The 192 human DNA ligase inhibitors were screened in parallel for effects on proliferation and the ability to potentiate the effects of several DNA damaging agents using two cell human lines, a colon cancer line HCT116 and a normal breast epithelial cell line MCF10A using a Biomek FX Laboratory Automation Workstation as described (23). The DNA damaging agents used, methyl methanesulfonate (MMS), camptothecin, cis-platinum, 3 aminobenzamide and ionizing radiation, are representatives of classes of agents used to treat cancer. Briefly, HCT116 and MCF10A cells were plated in 96 well plates such that the cultures were about 80% confluent after 5 days incubation. Compounds were added to the cultures at either 15 μM or 50 μM 1 day after plating. After incubation for 3 days, cell lysed in a solution containing 1.2% Igepal CA-630 and SYBR green that stains DNA (1:1000, Molecular Probes, Eugene, Oreg.). Subsequently, fluorescence was measured per well. The studies with DNA damaging agents were performed as follows. […] Cultures were incubated for 3 days and then treated as above.

[8] = cell growth, compound alone, read-out: IC50 (μM) HCT116

| SMILES | inhibition at 100 µM ([1]; 100 μM) | inhibition at 100 µM [2] | inhibition at 100 µM ([3]; 100 μM) | MMS: Ratios of IC50 HCT116 [4] | IC50 [5, 8] | IC50 ([5]; sections 'high concentrations (~50 μM)' and 'active in vitro that decreased cell growth', same figures given in μM elsewhere in Table 6, read-out: IC50 HCT116 (head without unit)) | IC50 [6] | inhibition at 100 µM [1] | inhibition at 100 µM [3] | IC50 ratios of non- and 3-AB treated cells HCT116 ([4]; compound alone vs combination with 3-AB (2 mM)) | IC50 ratios of non- and 3-AB treated cells MCF10A [7] |
| --- | --- | --- | --- | --- | --- | --- | --- | --- | --- | --- | --- |
| O=C(COC(=O)c1ccc2ccccc2c1O)c1cccs1 [Compound 214] | < 20% | 42% | 40% | ID (2) | 10 to 50 µM | 10 to 50 µM | > 50 µM | – | – | – | – |
| O=C1NC(=S)NC(=O)C1=NNc1cccc(C(=O)O)c1 [Compound 198] | – | < 20% | – | 2** | > 50 µM | – | > 50 µM | < 20% | < 20% | 1 | 2** |
